# Data: the METLIN SMRT retention time set (Domingo-Almenara et al. 2019)
# Assay: gradient 5% acetonitrile 3 min, to 50% in 2 min, to 85% in 15 min, held 3 min, 100 µL/min
# Settings: column: Zorbax Extend-C18 2.1 x 50 mm; eluents: water / acetonitrile, 0.1% formic acid
# Outline: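 The mobile phases were water and acetonitrile, each with 0.1% formic acid, pumped at 100 μL/min through a Zorbax Extend-C18 column (2.1 × 50 mm, 1.8 μm). Pure standards were injected as mixtures of ~100 molecules and detected by a quadrupole time-of-flight mass spectrometer in positive and negative ionization mode. Retention time came from computationally picked adduct peaks, each inspected by hand.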
row,Compound,RP-LC retention time
1,COc1ccc(OC)c(S(=O)(=O)N2CCC(c3cc(-c4cccc(C)c4)n[nH]3)CC2)c1,960 s
2,Cn1cc(-c2cc3n(n2)CCCN3C(=O)CCC(=O)NCCCN2CCOCC2)c2ccccc21,611 s
3,CCN1CCN(c2cc(C)c3cc(NC(=S)NCc4ccc5c(c4)OCO5)ccc3n2)CC1,590 s
4,CN(CC1CCOCC1)C(=O)c1cc(F)cc(F)c1,725 s
5,COc1cccc(-c2cn3ccn(-c4ccc5c(c4)CCC5)c(=O)c3n2)c1,914 s
6,CCCSc1ncnc2[nH]ncc12,837 s
7,CNC(=O)C1CCCN(c2nc3ncn(CC(=O)Nc4ccccc4OC)c(=O)c3s2)C1 (stereo not drawn),649 s
8,COC(=O)c1[nH]c(C)c(CN(C)C(=O)c2ccc(Br)cc2)c1C,876 s
9,CCOC(=O)C1CCN(C(=O)c2cn3c(n2)CCCC3)CC1,586 s
10,O=C(Cc1cn2cc(Cl)ccc2n1)Nc1ccccc1,614 s
11,CCN(CC)CCCNC(=O)c1noc2c1CCCC2,607 s
12,O=C(c1cc2ccccc2[nH]1)N1CCN(C(=O)c2ccc(Br)o2)CC1,797 s
13,CCOC(=O)c1csc(NC(=O)c2ccccc2Br)n1,780 s
14,COc1ccc2c(c1)CCc1sc(NC(=O)c3cccc(Br)c3)nc1-2,1240 s
15,CCCN1C(=O)CCc2cc(NC(=O)COc3ccc(F)cc3)ccc21,888 s
16,COc1ccc(C)cc1NC(=O)Cn1nc(N2CCOCC2)c2ccccc2c1=O,856 s
17,O=C(COc1ccc(Cl)cc1)N1C[C@H]2C[C@H](C1)[C@H]1CCCC(=O)N1C2,714 s
18,CCc1nnc(-c2coc(S(=O)(=O)N3CCC(N4CCCCC4)CC3)c2)o1,607 s
19,Cc1ccccc1N1C(=O)CN(S(C)(=O)=O)CC1(C)C(=O)NCc1ccc(Cl)cc1 (stereo not drawn),778 s

row,Compound,RP-LC retention time
1,O=C(CCn1cnc2c(-c3ccccc3)noc2c1=O)NCCCN1CCc2ccccc2C1,679 s
2,COc1ccccc1OCC(=O)N(Cc1ccc(N(C)C)cc1)C1CCS(=O)(=O)C1 (stereo not drawn),611 s
3,CC(=O)Nc1ccc(S(=O)(=O)N2CCC(CN3CCCCCC3)CC2)cc1,588 s
4,COC(=O)c1cnc2nc(C)ccc2c1NCc1ccccc1,658 s
5,COc1ccc2cc(C(=O)N3CCC(CC(=O)NCCc4c[nH]c5ccc(C)cc45)CC3)[nH]c2c1,817 s
6,O=C(C1CCCCC1)N1CCC(c2noc(CO)n2)C1 (stereo not drawn),656 s
7,Cc1ccc(-c2nnc(CC(=O)NCCc3cccs3)o2)cc1,771 s
8,Cn1cc(C(=O)NCc2cccs2)c2cccnc21,691 s
9,CCCC(N[C@@H](C)C(=O)N1[C@H](C(=O)O)C[C@@H]2CCCC[C@@H]21)C(=O)OCC (stereo partly drawn),703 s
10,O=C(O)CCCCC1SCC2NC(=O)NC21 (stereo not drawn),634 s
11,CC(=O)CC(=O)Nc1ccc(Cl)c(C(F)(F)F)c1,831 s
12,COc1cccc(C(=O)NCc2nn(C)c3ccccc23)c1,779 s
13,O=C(NCc1csc(-c2cccs2)n1)C1CCN(S(=O)(=O)c2cccs2)CC1,830 s
14,COCCN(CCNC(=O)C1Cn2cccc2C(=O)N1C)Cc1ccco1 (stereo not drawn),569 s
15,CCCCOc1ccc(-c2nc(C3CC(=O)N(c4ccc(Cl)cc4)C3)no2)cc1 (stereo not drawn),1350 s
16,CCOc1ccc2c(n1)CCN(C(=O)Nc1ccc(C)cc1C)C2,852 s
17,Cc1c(C(=O)N2CCN(C(C)C)CC2)cnn1-c1cc(-c2nc(C(C)(C)C)no2)ccn1,685 s
18,CN(C)C(=O)c1ccc2c(c1)nnn2CCNC(=O)Nc1ccccc1,626 s
19,O=C(CN1CCN(Cc2ccccc2)C(=O)C1=O)N1CCN(c2cccc(Cl)c2)CC1,828 s
